Test results as given in EP4763847A1 (Jiangsu Yahong Meditech Co., Ltd., priority 2023, dated 2025).

Assays:
PRMT5-MTA = PRMT5-MTA (Homo sapiens, UniProt O14744); test: biochemical; settings: IC50 (nM), PRMT5+MTA enzyme activity inhibition; PRMT5/MET50 protein 1 nM, 5'-deoxy-5'-adenosine 1 µM, SAM 2.5 µM, Histone H4 substrate 5 nM
Method: The enzymatic inhibition activity of the compounds against PRMT5-MTA was detected using the AlphaScreen method. A 1× methyltransferase assay buffer IV (Signalchem) was prepared as a dilution solution for each component of the enzymatic reaction. […] The test compounds were added to all wells except the control wells in a 3-fold dilution series of 10 concentration points starting from 1000 nM using a Tecan D300e. After centrifugation at 1000 rpm for 1 minute in a centrifuge, the plate was incubated at 23°C for 15 minutes. Histone H4 substrate at a final concentration of 5 nM was added to the plate at 4 µL per well. After centrifugation at 1000 rpm for 1 minute in a centrifuge, the plate was reacted in an incubator at 23°C for 45 minutes. Anti-Histone H4 (symmetric dimethyl R3) antibody (Abcam) was pre-incubated with 50 µg/mL AlphaScreen Protein A Acceptor beads (PerkinElmer) at room temperature for 10 minutes, and then added to the plate in a volume of 10 µL per well, followed by reaction at room temperature for 1 hour. 10 µL of 50 µg/mL AlphaScreen Streptavidin Donor beads (PerkinElmer) were added to each well, and reacted at room temperature for 1 hour. The signal values in the plate were detected using the Alpha method on an Envision multi-mode plate reader. The IC50 values of the compounds for PRMT5/MET50 enzyme activity inhibition were calculated in Xlfit 5.0 software.

HCT116 MTAP KO = test: Cell proliferation inhibition (CellTiter Glo), HCT116 MTAP KO cells; type: cell-based; settings: Homo sapiens, HCT-116, 144 h, cultured 6 days with compound
Method: (§1) Test Example 2: Test of cell proliferation inhibition activity of the compounds
(§2) HCT116-WT (ATCC, CCL-247) and HCT116 MTAP KO (Cobioer Nanjing, CBP75002) cells were seeded into white low-transparency 96-well sterile cell culture plates at a density of 250 cells per well, respectively. The culture medium was McCoy's 5A Medium + 10% FBS. The plates were incubated overnight at 37°C with 5% CO2. The cells were treated with compounds gradiently with an initial concentration of 10000 nM, 4-fold dilution, and 8 concentration points. The last two columns were control wells with only DMSO added. The treated cells were continued to be cultured for 6 days. On the seventh day, 50 µL of CellTiter Glo® reagent was added to each well. After reacting on a shaker at room temperature for 10 minutes, the chemiluminescence signal in the plate was detected using the chemiluminescence detection method on a BIOTEK H1 multi-mode plate reader. […] Table 2: IC50 values of compounds for HCT116 MTAP KO/WT cell growth inhibition

HCT116-WT = test: Cell proliferation inhibition (CellTiter Glo), HCT116-WT cells; type: cell-based; settings: 144 h, cultured 6 days with compound
Method: as §1, §2

Sequence of PRMT5-MTA (O14744 whole entry): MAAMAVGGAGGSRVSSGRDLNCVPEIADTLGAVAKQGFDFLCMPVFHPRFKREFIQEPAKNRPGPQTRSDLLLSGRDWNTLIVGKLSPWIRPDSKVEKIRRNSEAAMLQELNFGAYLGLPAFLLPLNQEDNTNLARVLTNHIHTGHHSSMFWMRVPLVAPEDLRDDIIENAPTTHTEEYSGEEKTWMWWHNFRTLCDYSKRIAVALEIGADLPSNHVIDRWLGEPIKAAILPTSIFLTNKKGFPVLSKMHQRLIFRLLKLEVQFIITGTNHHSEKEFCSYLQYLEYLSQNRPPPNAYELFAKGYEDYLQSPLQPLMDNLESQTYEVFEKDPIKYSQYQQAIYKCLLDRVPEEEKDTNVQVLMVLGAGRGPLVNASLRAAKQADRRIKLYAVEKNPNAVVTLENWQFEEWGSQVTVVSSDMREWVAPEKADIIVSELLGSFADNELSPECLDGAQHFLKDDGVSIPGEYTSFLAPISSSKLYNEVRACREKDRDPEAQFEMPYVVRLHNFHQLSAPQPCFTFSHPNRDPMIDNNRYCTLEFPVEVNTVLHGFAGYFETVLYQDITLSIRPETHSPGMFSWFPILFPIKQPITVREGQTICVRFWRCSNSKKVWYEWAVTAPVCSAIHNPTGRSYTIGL
Sequence of PRMT5-MTA (Q9BQA1 whole entry partner): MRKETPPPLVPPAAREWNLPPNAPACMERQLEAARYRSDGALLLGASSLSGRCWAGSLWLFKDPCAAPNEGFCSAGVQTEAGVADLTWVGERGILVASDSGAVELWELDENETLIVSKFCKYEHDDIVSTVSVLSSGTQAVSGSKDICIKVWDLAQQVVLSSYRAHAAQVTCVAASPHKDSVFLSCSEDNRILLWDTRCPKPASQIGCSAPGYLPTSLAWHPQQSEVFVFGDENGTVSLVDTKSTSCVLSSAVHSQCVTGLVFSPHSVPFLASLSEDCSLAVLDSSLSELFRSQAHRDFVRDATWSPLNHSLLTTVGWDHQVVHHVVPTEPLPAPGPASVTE

Structure (SMILES)	IC50 (PRMT5-MTA)	IC50 (HCT116 MTAP KO)	IC50 (HCT116-WT)
CN/C(N)=N\c1ccc(C(=O)N(Cc2ccc3nc(C)sc3c2)[C@H](C)c2ccccc2F)cn1 [Compound 78, (R,Z)-6-((amino(methylamino)methylene)amino)-N-(1-(2-fluorophenyl)ethyl)-N-((2-methylbenzo[d]thiazol-6-yl)methyl)nicotinamide]	7.7 nM	287 nM	1860 nM
CNC(N)=Nc1ccc(C(=O)N(Cc2ccc(C(F)(F)F)cn2)C(C)c2cccc(F)c2)cn1 (stereo not drawn) [compound 119]	1.3 nM	398 nM	2790 nM
CCNC(N)=Nc1ccc(C(=O)N(Cc2ccc(C(F)(F)F)cn2)C(C)c2ncccn2)cn1 (stereo not drawn) [Compound 14]	1.3 nM	707 nM	3550 nM
CN/C(N)=N\c1ccc(C(=O)N(Cc2ccc(C(C)(F)F)cn2)[C@H](C)c2ccccc2F)cn1 [Compound 76, (R,Z)-6-((amino(methylamino)methylene)amino)-N-((5-(1,1-difluoroethyl)pyridin-2-yl)methyl)-N-(1-(2-fluorophenyl)ethyl)nicotinamide]	5.4 nM	32 nM	345 nM
CNC(N)=Nc1ccc(C(=O)N(Cc2ccc(-c3cnc4c(cnn4C)c3)cn2)[C@H](C)c2ccccc2F)cn1 [Compound 73]	6.5 nM	72 nM	1080 nM
CNC(N)=Nc1ccc(C(=O)N(Cc2ccc(C(F)(F)F)cn2)C2CCCc3ccccc32)cn1 (stereo not drawn) [Compound 61]	1.4 nM	28 nM	769 nM
CNC(N)=Nc1ccc(C(=O)N(Cc2ccc(C(F)(F)F)cn2)c2cccc3nccnc23)cn1 [Compound 50]	1.7 nM	25 nM	512 nM
CNC(N)=Nc1ccc(C(=O)N(Cc2cscn2)[C@H](C)c2ccccc2F)cn1 [Compound 104]	5.8 nM	416 nM	> 10000 nM
CNC(N)=Nc1ccc(C(=O)N(Cc2ccc(C(F)(F)F)cn2)C(C)c2ccccn2)cn1 (stereo not drawn) [Compound 34]	1.8 nM	182 nM	3480 nM
CN/C(N)=N\c1ccc(C(=O)N(Cc2ccc(-c3ccc(N4CCN(C)CC4)nc3)cn2)[C@H](C)c2ccccc2F)cn1 [Compound 130, (R,Z)-6-((amino(methylamino)methylene)amino)-N-(1-(2-fluorophenyl)ethyl)-N-((6'-(4-methylpiperazin-1-yl)-[3,3'-bipyridin]-6-yl)methyl)nicotinamide]	9.7 nM	329 nM	1570 nM
CNC(N)=Nc1ccc(C(=O)N(Cc2ccc(C(F)(F)F)cn2)C(C)c2cccc(C)c2)cn1 (stereo not drawn) [Compound 31, 6-((amino(methylamino)methylene)amino)-N-(1-(m-tolyl)ethyl)-N-((5-(trifluoromethyl)pyridin-2-yl)methyl)nicotinamide]	3.4 nM	302 nM	3360 nM
NC(=Nc1ccc(C(=O)N(Cc2ccc(C(F)(F)F)cn2)C2CCCc3ccccc32)cn1)NO (stereo not drawn) [Compound 116]	3.4 nM	63 nM	307 nM
CC(c1ncccn1)N(Cc1ccc(C(F)(F)F)cn1)C(=O)c1ccc(N=C(N)N)nc1 (stereo not drawn) [Compound 7]	2.1 nM	422 nM	1520 nM
CNC(N)=Nc1ccc(C(=O)N(Cc2ccccn2)[C@H](C)c2ccccc2F)cn1 [Compound 111]	3.7 nM	496 nM	6450 nM
CNC(N)=Nc1ccc(C(=O)N(Cc2ccc(-c3cnn(C(F)(F)F)c3)cn2)[C@H](C)c2ccccc2F)cn1 [Compound 69]	4.8 nM	50 nM	643 nM
CNC(N)=Nc1ccc(C(=O)N(Cc2ccc(C(F)(F)F)cn2)[C@H](C)c2cccc(F)c2F)cn1 [Compound 91]	2.2 nM	96 nM	2010 nM
CC(c1ncccn1)N(Cc1ccc(C(F)(F)F)cn1)C(=O)c1ccc(N=C(N)NO)nc1 (stereo not drawn) [Compound 12]	3 nM	55 nM	210 nM
CNC(N)=Nc1ccc(C(=O)N(Cc2ccc3sc(C4CCN(C)CC4)nc3c2)[C@H](C)c2ccccc2F)cn1 [Compound 79]	3.1 nM	782 nM	3440 nM
CNC(N)=Nc1ccc(C(=O)N(Cc2ccc(C(F)(F)F)cc2)[C@H](C)c2ccccc2F)cn1 [Compound 108]	7.9 nM	48 nM	452 nM

Structure (SMILES)	IC50 (PRMT5-MTA)	IC50 (HCT116 MTAP KO)	IC50 (HCT116-WT)
CNC(N)=Nc1ccc(C(=O)N(Cc2ccc(F)cc2)[C@H](C)c2ccccc2F)cn1 [Compound 112]	6.1 nM	304 nM	2340 nM
CNC(N)=Nc1ccc(C(=O)N(Cc2ccc(C(F)(F)F)cn2)C(C)c2ccccc2Cl)cn1 (stereo not drawn) [Compound 88]	3.3 nM	616 nM	3840 nM
CN/C(N)=N\c1ccc(C(=O)N(Cc2ccc(C(F)(F)F)cn2)[C@H](C)c2ccc(F)cc2F)cn1 [Compound 82, (R,Z)-6-((amino(methylamino)methylene)amino)-N-(1-(2,4-difluorophenyl)ethyl)-N-((5-(trifluoromethyl)pyridin-2-yl)methyl)nicotinamide]	4.2 nM	18 nM	226 nM
CNC(N)=Nc1ccc(C(=O)N(Cc2ccc(C(F)(F)F)cn2)C2CCOc3ccccc32)cn1 (stereo not drawn) [Compound 86]	0.7 nM	60 nM	867 nM
CNC(N)=Nc1ccc(C(=O)N(Cc2ccc(C(C)F)cn2)[C@H](C)c2ccccc2F)cn1 (stereo partly drawn) [Compound 74, 6-((Z)-(amino(methylamino)methylene)amino)-N-((5-(1-fluoroethyl)pyridin-2-yl)methy 1)-N-((R)-1-(2-fluorophenyl)ethyl)nicotinamide]	8 nM	41 nM	744 nM
CNC(N)=Nc1ccc(C(=O)N(Cc2ccc(C(F)(F)F)cn2)C(C)C2CC2)cn1 (stereo not drawn) [Compound 33]	1 nM	279 nM	4000 nM
CNC(N)=Nc1ccc(C(=O)N(Cc2ccc(C(F)(F)F)cn2)C(C)c2ncccc2F)cn1 (racemic) [Compound 58]	0.4 nM	34 nM	971 nM
CN/C(N)=N\c1ccc(C(=O)N(Cc2ccc(C(F)(F)F)cn2)[C@H]2CCCc3ccccc32)cn1 [Compound 114, (S,Z)-6-((amino(methylamino)methylene)amino)-N-(1,2,3,4-tetrahydronaphthalen-1-yl) -N-((5-(trifluoromethyl)pyridin-2-yl)methyl)nicotinamide]	3.2 nM	612 nM	2970 nM
CNC(N)=Nc1ccc(C(=O)N(Cc2ccc(C(F)(F)F)cn2)C(C)c2ccccc2F)cn1 (stereo not drawn) [Compound 42]	1.6 nM	61 nM	982 nM
CNC(N)=Nc1ccc(C(=O)N(Cc2ccc(C(F)(F)F)cn2)C(C)c2ccccc2C(F)(F)F)cn1 (stereo not drawn) [Compound 115]	0.9 nM	942 nM	3180 nM
CN/C(N)=N\c1ccc(C(=O)N(Cc2ccc(C(F)(F)F)cn2)C(c2ccccc2F)C2CC2)cn1 (stereo not drawn) [Compound 94, (Z)-6-((amino(methylamino)methylene)amino)-N-(cyclopropyl(2-fluorophenyl)methyl) -N-((5-(trifluoromethyl)pyridin-2-yl)methyl)nicotinamide]	6.6 nM	49 nM	912 nM
CNC(N)=Nc1ccc(C(=O)N(Cc2ccc(C(F)(F)F)cn2)[C@H](C)c2ccccc2F)cn1 [Compound 89]	0.6 nM	12 nM	421 nM
CNC(N)=Nc1ccc(C(=O)N(Cc2ccc(-c3ccc(C)nc3)cn2)[C@H](C)c2ccccc2F)cn1 [Compound 71]	7.7 nM	62 nM	1090 nM
CNC(N)=Nc1ccc(C(=O)N(Cc2ccc(C(F)(F)F)cn2)[C@H]2CCc3ccccc32)cn1 [Compound 87]	2.7 nM	975 nM	3310 nM
CNC(N)=Nc1ccc(C(=O)N(Cc2ccncc2)[C@H](C)c2ccccc2F)cn1 [Compound 107]	4 nM	474 nM	8230 nM
CN/C(N)=N\c1ccc(C(=O)N(Cc2ccc(-c3ccc(N4CCOCC4)nc3)cn2)[C@H](C)c2ccccc2F)cn1 [Compound 67, (R,Z)-6-((amino(methylamino)methylene)amino)-N-(1-(2-fluorophenyl)ethyl)-N-((6'-morpholino-[3,3'-bipyridin]-6-yl)methyl)nicotinamide]	5.7 nM	145 nM	672 nM
CNC(N)=Nc1ccc(C(=O)N(Cc2ccc(C(F)(F)F)cn2)C2CCCc3cccc(F)c32)cn1 (stereo not drawn) [compound 93]	7.1 nM	33 nM	504 nM
CN/C(N)=N\c1ccc(C(=O)N(Cc2ccc3nn(C)cc3c2)[C@H](C)c2ccccc2F)cn1 [Compound 97, (R,Z)-6-((amino(methylamino)methylene)amino)-N-(1-(2-fluorophenyl)ethyl)-N-((2-methyl-2H-indazol-5-yl)methyl)nicotinamide]	3.1 nM	353 nM	5700 nM
CNC(N)=Nc1ccc(C(=O)N(Cc2cccc(F)c2)[C@H](C)c2ccccc2F)cn1 [Compound 110]	6.2 nM	508 nM	3660 nM
